Data taken from patent US20060069132A1, “Azolecarboxamide herbicides” (priority 2004, published 2006).

What was measured:
ducksalad = assay: Test B flooded paddy test; type: in vivo, Heteranthera limosa; conditions: 1000 g ai/ha, visual rating, scale 0 to 100 (0 no effect, 100 complete control), 13 to 15 days
Procedure, shortened: (§1)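 Paddy species grown to the 2-leaf stage under flooding; blackgrass sprayed postemergence at 2–18 cm (1- to 4-leaf stage). Plants kept in a greenhouse for 13 to 15 days, then visually rated against controls on 0 (no effect) to 100 (complete control).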

velvetleaf [1] = assay: Test A pre-/postemergence herbicide test; type: in vivo, Abutilon theophrasti; conditions: for Velvetleaf plant response rating: Preemergence
Procedure, shortened: (§2)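 Sandy loam soil given preemergence directed spray; plants at 2 to 10 cm, one- to two-leaf stage, sprayed to runoff postemergence, compounds in non-phytotoxic solvent with surfactant. Injury rated visually versus untreated controls after about ten greenhouse days, 0 (no effect) to 100 (complete control); dash means not tested.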

wild oat = assay: Test B postemergence herbicide test; type: in vivo, Avena fatua; conditions: scale 0 (no effect) to 100 (complete control)
Procedure, shortened: (§3)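 Scale 0–100: zero equals no visible effect, 100 complete control, judged by eye relative to controls. Timing: 13 to 15 days in greenhouse post-treatment. Growth stage at spraying: two leaves (paddy) or one to four leaves, 2–18 cm (postemergence).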

Surinam grass = assay: Test B pre-/postemergence herbicide test; type: in vivo, Urochloa decumbens
Procedure, shortened: (§4)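 Flooded paddy rice and barnyardgrass were treated at the 2-leaf stage; upland plantings received compound either on sown seed or on 1- to 4-leaf seedlings. All were kept 13–15 days in a greenhouse and scored visually, 0–100, relative to untreated plants.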

barnyardgrass [2] = assay: Test B pre-/postemergence herbicide test; type: in vivo, Echinochloa crus-galli
Procedure, shortened: (§5)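 Test chemicals in a non-phytotoxic solvent mixture with surfactant were applied preemergence to seeded species and postemergence to plants 2-18 cm tall (1- to 4-leaf stage); rice and barnyardgrass were also tested in a flooded paddy at the 2-leaf stage. Visual rating versus controls after 13-15 days in greenhouse, scale 0 (no effect) to 100 (complete control).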

[3] = tested on: small flower umbrella sedge; assay: Test B flooded paddy test; type: in vivo, Cyperus difformis; conditions: 1000 g ai/ha, visual rating, scale 0 to 100 (0 no effect, 100 complete control), 13 to 15 days
Procedure, shortened: as §1

lambsquarters = assay: Test B pre-/postemergence herbicide test; type: in vivo, Chenopodium album
Procedure, shortened: as §4

barnyardgrass [4] = assay: Test A pre-/postemergence herbicide test; type: in vivo, Echinochloa crus-galli; conditions: for Plant response rating, Barnyardgrass: Postemergence; for Barnyardgrass plant response rating: Preemergence
Procedure, shortened: as §2

pigweed = assay: Test B pre-/postemergence herbicide test; type: in vivo, Amaranthus retroflexus
Procedure, shortened: as §4

rice [5] = assay: Test B pre-/postemergence herbicide test; type: in vivo, Oryza sativa
Procedure, shortened: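 Evaluation is visual, comparing treated with control plants on a scale where 0 means no effect and 100 means full control. Treatments were preemergence, or postemergence on seedlings 2–18 cm tall, and held 13–15 days in the greenhouse.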

morningglory [6] = assay: Test A pre-/postemergence herbicide test; type: in vivo, Ipomoea spp.; conditions: for Plant response rating, Morningglory: Postemergence; for Morningglory plant response rating: Preemergence
Procedure, shortened: as §2

wheat = assay: Test B postemergence herbicide test; type: in vivo, Triticum aestivum; parameters: key to Wheat plant response rating: 0 = no effect, 100 = complete control; conditions: scale 0 (no effect) to 100 (complete control)
Procedure, shortened: as §3

giant foxtail [7] = assay: Test A pre-/postemergence herbicide test; type: in vivo, Setaria faberi; conditions: for Plant response rating, Foxtail, Giant: Postemergence; for Foxtail, Giant plant response rating: Preemergence
Procedure, shortened: as §2

giant foxtail [8] = assay: Test B pre-/postemergence herbicide test; type: in vivo, Setaria faberi
Procedure, shortened: as §4

large crabgrass [9] = assay: Test A pre-/postemergence herbicide test; type: in vivo, Digitaria sanguinalis; conditions: for Plant response rating, Crabgrass, Large: Postemergence; for Crabgrass, Large plant response rating: Preemergence
Procedure, shortened: as §2

corn = assay: Test B pre-/postemergence herbicide test; type: in vivo, Zea mays
Procedure, shortened: as §4

cocklebur = assay: Test B pre-/postemergence herbicide test; type: in vivo, Xanthium strumarium
Procedure, shortened: as §5

blackgrass = assay: Test B postemergence herbicide test; type: in vivo, Alopecurus myosuroides; conditions: scale 0 (no effect) to 100 (complete control)
Procedure, shortened: as §1

morningglory [10] = assay: Test B pre-/postemergence herbicide test; type: in vivo, Ipomoea coccinea
Procedure, shortened: as §5

rice [11] = assay: Test B flooded paddy test; type: in vivo, Oryza sativa; conditions: 1000 g ai/ha, visual rating, scale 0 to 100 (0 no effect, 100 complete control), 13 to 15 days
Procedure, shortened: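 After treating 2-leaf paddy plants or 2–18 cm postemergence plants (1 to 4 leaves) with formulated chemical, researchers kept them in a greenhouse for 13–15 days. Effects were judged visually versus controls: 0 indicates none, 100 total control.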

large crabgrass [12] = assay: Test B pre-/postemergence herbicide test; type: in vivo, Digitaria sanguinalis
Procedure, shortened: as §4

redroot pigweed = assay: Test A pre-/postemergence herbicide test; type: in vivo, Amaranthus retroflexus; conditions: for Plant response rating, Pigweed: Postemergence; for Pigweed plant response rating: Preemergence
Procedure, shortened: as §2

barnyardgrass [13] = assay: Test B flooded paddy test; type: in vivo, Echinochloa crus-galli; conditions: 1000 g ai/ha, visual rating, scale 0 to 100 (0 no effect, 100 complete control), 13 to 15 days
Procedure, shortened: as §1

velvetleaf [14] = assay: Test B pre-/postemergence herbicide test; type: in vivo, Abutilon theophrasti
Procedure, shortened: as §4

[15] = 500 g ai/ha, visual rating, 0 to 100 scale (0 no effect, 100 complete control)
[16] = 2000 g ai/ha, 0 to 100 scale, 0 no effect, 100 complete control
[17] = Postemergence, 500 g ai/ha, visual rating after 13 to 15 days
[18] = postemergence, 125 g ai/ha, visual rating
[19] = Postemergence, 500 g ai/ha, visual rating after 13 to 15 days, scale 0 (no effect) to 100 (complete control)
[20] = Preemergence, 500 g ai/ha, scale 0 to 100
[21] = postemergence, 125 g ai/ha, visual rating, scale 0 (no effect) to 100 (complete control)
[22] = preemergence, 125 g ai/ha, 0 to 100 scale, 0 is no effect, 100 is complete control
[23] = 500 g ai/ha, 0 to 100 scale, 0 no effect, 100 complete control

CCN(CC)C(=O)c1cc(NC(=O)c2cc(C(C)(C)C)nn2CC)ccc1F [Compound 59]
Ducksalad plant response rating (ducksalad): 0
Plant response rating, Velvetleaf (velvetleaf [1]; Postemergence, 2000 g ai/ha, 0 to 100 scale, 0 no effect, 100 complete control): 20
Velvetleaf plant response rating (velvetleaf [1]; [15]): 15
Velvetleaf plant response rating (velvetleaf [1]; [16]): 55
Plant response rating, Oat, Wild (wild oat; [17]): 20
Oat, Wild plant response rating (wild oat; [18]): 10
Plant response rating, Surinam Grass (Surinam grass; [19]): 20
Surinam Grass plant response rating (Surinam grass; [20]): 10
Surinam Grass plant response rating (Surinam grass; [21]): 10
Plant response rating, Surinam Grass (Surinam grass; [22]): 0
Plant response rating, Barnyardgrass (barnyardgrass [2]; [19]): 20
Barnyardgrass plant response rating (barnyardgrass [2]; [20]): 70
Barnyardgrass plant response rating (barnyardgrass [2]; [21]): 0
Plant response rating, Barnyardgrass (barnyardgrass [2]; [22]): 10
Sedge, Umbrella plant response rating [3]: 0
Plant response rating, Lambsquarters (lambsquarters; [19]): 90
Lambsquarters plant response rating (lambsquarters; [20]): 100
Lambsquarters plant response rating (lambsquarters; [21]): 80
Plant response rating, Lambsquarters (lambsquarters; [22]): 90
Plant response rating, Barnyardgrass (barnyardgrass [4]; [23]): 20
Plant response rating, Barnyardgrass (barnyardgrass [4]; [16]): 30
Barnyardgrass plant response rating (barnyardgrass [4]; [15]): 25
Barnyardgrass plant response rating (barnyardgrass [4]; [16]): 60
Plant response rating, Pigweed (pigweed; [19]): 80
Pigweed plant response rating (pigweed; [20]): 100
Pigweed plant response rating (pigweed; [21]): 70
Plant response rating, Pigweed (pigweed; [22]): 100
Rice plant response rating (rice [5]; [20]): 0
Plant response rating, Rice (rice [5]; [22]): 0
Plant response rating, Morningglory (morningglory [6]; [23]): 10
Plant response rating, Morningglory (morningglory [6]; [16]): 10
Morningglory plant response rating (morningglory [6]; [15]): 10
Morningglory plant response rating (morningglory [6]; [16]): 40
Plant response rating, Wheat (wheat; [17]): 10
Wheat plant response rating (wheat; [18]): 0
Plant response rating, Foxtail, Giant (giant foxtail [7]; [23]): 15
Plant response rating, Foxtail, Giant (giant foxtail [7]; [16]): 20
Foxtail, Giant plant response rating (giant foxtail [7]; [15]): 5
Foxtail, Giant plant response rating (giant foxtail [7]; [16]): 65
Plant response rating, Foxtail, Giant (giant foxtail [8]; [19]): 20
Foxtail, Giant plant response rating (giant foxtail [8]; [20]): 40
Foxtail, Giant plant response rating (giant foxtail [8]; [21]): 0
Plant response rating, Foxtail, Giant (giant foxtail [8]; [22]): 0
Plant response rating, Crabgrass, Large (large crabgrass [9]; [23]): 15
Plant response rating, Crabgrass, Large (large crabgrass [9]; [16]): 20
Crabgrass, Large plant response rating (large crabgrass [9]; [15]): 25
Crabgrass, Large plant response rating (large crabgrass [9]; [16]): 45
Plant response rating, Corn (corn; [19]): 20
Corn plant response rating (corn; [20]): 0
Corn plant response rating (corn; [21]): 10
Plant response rating, Corn (corn; [22]): 0
Plant response rating, Cocklebur (cocklebur; [19]): 40
Cocklebur plant response rating (cocklebur; [20]): 0
Cocklebur plant response rating (cocklebur; [21]): 10
Plant response rating, Cocklebur (cocklebur; [22]): 0
Plant response rating, Blackgrass (blackgrass; [17]): 0
Blackgrass plant response rating (blackgrass; [18]): 0
Plant response rating, Morningglory (morningglory [10]; [19]): 20
Morningglory plant response rating (morningglory [10]; [20]): 10
Morningglory plant response rating (morningglory [10]; [21]): 20
Plant response rating, Morningglory (morningglory [10]; [22]): 0
Rice plant response rating (rice [11]): 0
Plant response rating, Crabgrass, Large (large crabgrass [12]; [19]): 20
Crabgrass, Large plant response rating (large crabgrass [12]; [20]): 20
Crabgrass, Large plant response rating (large crabgrass [12]; [21]): 10
Plant response rating, Crabgrass, Large (large crabgrass [12]; [22]): 10
Plant response rating, Pigweed (redroot pigweed; [23]): 40
Plant response rating, Pigweed (redroot pigweed; [16]): 75
Pigweed plant response rating (redroot pigweed; [15]): 90
Pigweed plant response rating (redroot pigweed; [16]): 100
Barnyardgrass plant response rating (barnyardgrass [13]): 0
Plant response rating, Velvetleaf (velvetleaf [14]; [19]): 20
Velvetleaf plant response rating (velvetleaf [14]; [20]): 40
Velvetleaf plant response rating (velvetleaf [14]; [21]): 20
Plant response rating, Velvetleaf (velvetleaf [14]; [22]): 10
